Experimental findings from patent US8541407B2 (ArQule, Inc., priority 2010, dated 2013) are described below.

Structures can show the parent of a compound that is named as a salt.

One experiment has as its system A2780. Description: MTS Assay, cell proliferation analysis (A2780). The format is cell-based. The conditions noted are these: Homo sapiens; A2780 cells; 72 hours; 10 Percent FBS. As to the method: (§1) Cell proliferation analysis. Cell survival was determined by the MTS assay. Briefly, cells were plated in a 96-well plate at 2,000-10,000 cells per well, cultured for 24 hours in complete growth medium, and then treated with representative compounds of the invention or combinations thereof for 72 hours. MTS was added and incubated for 4 hours, followed by assessment of cell viability by using the microplate reader at 570 nm. Data were normalized to untreated controls and analyzed.

Another experiment relates to AN3-CA. Nature of the experiment: MTS Assay, cell proliferation analysis (AN3-CA). The experiment is classed as cell-based. The conditions noted are these: Homo sapiens; AN3-CA cells; 72 hours; 10 Percent FBS. As to the method: as §1
A further experiment has as its target AKT1 (Homo sapiens (Human), UniProt P31749). Nature of the experiment: Inactive Akt Alpha Screen Assay. The conditions noted are these: non *labeled: Akt Alpha Screen assay; read-out: AKT1 biochemical assay, IC50. An outline of the steps: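 AKT1 activated in situ by PDK1, MAPKAPK2, lipid vesicles and ATP, then phosphorylating biotinylated crosstide for 30 min at room temperature. Stopped with 10 mM EDTA; phosphopeptide detected by AlphaScreen using phospho-AKT substrate antibody (1:350), Protein A acceptor and streptavidin donor beads, 90 min dark, ex 640/em 570 nm.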

Chain of AKT1 (P31749 whole entry): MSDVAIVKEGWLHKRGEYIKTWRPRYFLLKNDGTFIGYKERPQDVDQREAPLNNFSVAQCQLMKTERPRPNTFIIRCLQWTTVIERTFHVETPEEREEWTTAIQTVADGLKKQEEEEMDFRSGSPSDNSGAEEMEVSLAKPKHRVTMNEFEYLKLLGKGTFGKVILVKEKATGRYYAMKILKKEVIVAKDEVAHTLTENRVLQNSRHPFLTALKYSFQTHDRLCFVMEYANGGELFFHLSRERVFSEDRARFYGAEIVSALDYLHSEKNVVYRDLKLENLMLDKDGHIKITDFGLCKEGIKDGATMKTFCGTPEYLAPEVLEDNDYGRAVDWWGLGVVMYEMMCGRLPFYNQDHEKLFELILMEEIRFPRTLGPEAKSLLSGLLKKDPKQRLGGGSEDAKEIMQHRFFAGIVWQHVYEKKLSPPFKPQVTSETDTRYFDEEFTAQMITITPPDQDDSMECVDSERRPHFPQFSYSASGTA

For `O=S(=O)(NC1(c2ccc(-c3nnc4n3-c3cccnc3Nc3ccccc3-4)cc2)CCC1)c1ccccc1` [Example 195, N-(1-(4-(9H-benzo[f]pyrido[2,3-b][1,2,4]triazolo[4,3-d][1,4]diazepin-3-yl)phenyl)cyclobutyl)benzenesulfonamide], the IC50 – broadly, the concentration at which inhibition is half-maximal – in the experiment on A2780 was 11 µM; with AN3-CA it was 16 µM; on AKT1 it was 0.28 µM. As for `Cc1ccc(S(=O)(=O)NCc2ccc(-c3nnc4n3-c3cccnc3Nc3ccccc3-4)cc2)cc1` [Example 118, N-(4-(9H-benzo[f]pyrido[2,3-b][1,2,4]triazolo[4,3-d][1,4]diazepin-3-yl)benzyl)-4-methylbenzenesulfonamide], the IC50 turned out to be 14 µM in the experiment on A2780, 28 µM in the experiment with AN3-CA and 0.11 µM on AKT1.

On to `Cc1ccc(S(=O)(=O)NC2(c3ccc(-c4nnc5n4-c4cccnc4Nc4ccccc4-5)cc3)CCC2)cc1` [Example 198, N-(1-(4-(9H-benzo[f]pyrido[2,3-b][1,2,4]triazolo[4,3-d][1,4]diazepin-3-yl)phenyl)cyclobutyl)-4-methylbenzenesulfonamide], for which the IC50 in the experiment with A2780 was 12 µM; with AN3-CA, 17 µM; at AKT1 it was 0.34 µM. The matching figures for `O=C(Nc1cccc(C(F)(F)F)c1)NC1CCN(Cc2ccc(-c3nnc4n3-c3cccnc3Nc3ccccc3-4)cc2)CC1` [Example 174, 1-(1-(4-(9H-benzo[f]pyrido[2,3-b][1,2,4]triazolo[4,3-d][1,4]diazepin-3-yl)benzyl)piperidin-4-yl)-3-(3-(trifluoromethyl)phenyl)urea]: 8 µM, 13 µM and 0.63 µM. In the same order, the values of `O=S(=O)(NC1CCN(Cc2ccc(-c3nnc4n3-c3cccnc3Nc3ccccc3-4)cc2)CC1)c1ccc2c(c1)OCCO2` [Example 156, N-(1-(4-(9H-benzo[f]pyrido[2,3-b][1,2,4]triazolo[4,3-d][1,4]diazepin-3-yl)benzyl)piperidin-4-yl)-2,3-dihydrobenzo[b][1,4]dioxine-6-sulfonamide] are 15 µM, 20 µM and 2 µM. In the same order, the values of `Clc1ccc2nc(CCNCc3ccc(-c4nnc5n4-c4cccnc4Nc4ccccc4-5)cc3)[nH]c2c1` [Example 203, N-(4-(9H-benzo[f]pyrido[2,3-b][1,2,4]triazolo[4,3-d][1,4]diazepin-3-yl)benzyl)-2-(6-chloro-1H-benzo[d]imidazol-2-yl)ethanamine] are 10 µM, 13 µM and 0.15 µM. Regarding `O=C(Nc1ccc(-c2nnc3n2-c2cccnc2Nc2ccccc2-3)cc1)c1ccccc1` [Example 59, N-(4-(9H-benzo[f]pyrido[2,3-b][1,2,4]triazolo[4,3-d][1,4]diazepin-3-yl)phenyl)benzamide], the results for the IC50 in the experiment on A2780, in the experiment on AN3-CA and at AKT1 were 32 µM, 28 µM and 0.07 µM, respectively.

Consider `O=C(NCCc1cccs1)NC1CCN(Cc2ccc(-c3nnc4n3-c3cccnc3Nc3ccccc3-4)cc2)CC1` [Example 182, 1-(1-(4-(9H-benzo[f]pyrido[2,3-b][1,2,4]triazolo[4,3-d][1,4]diazepin-3-yl)benzyl)piperidin-4-yl)-3-(2-(thiophen-2-yl)ethyl)urea], for which the IC50 with A2780 stood at 10 µM; in the experiment with AN3-CA it was 28 µM; on AKT1, 0.75 µM. In the same order, the values of `O=C(NC1(c2ccc(-c3nnc4n3-c3cccnc3Nc3ccccc3-4)cc2)CCC1)c1ccccc1` [Example 193, N-(1-(4-(9H-benzo[f]pyrido[2,3-b][1,2,4]triazolo[4,3-d][1,4]diazepin-3-yl)phenyl)cyclobutyl)benzamide] are 12 µM, 22 µM and 0.073 µM. The matching figures for `O=S(=O)(NCc1ccc(-c2nnc3n2-c2cccnc2Nc2ccccc2-3)cc1)c1ccc(F)cc1` [Example 117, N-(4-(9H-benzo[f]pyrido[2,3-b][1,2,4]triazolo[4,3-d][1,4]diazepin-3-yl)benzyl)-4-fluorobenzenesulfonamide]: 19 µM, 37 µM and 0.12 µM. In the same order, the values of `Cc1ccc(NC(=O)NC2CCN(Cc3ccc(-c4nnc5n4-c4cccnc4Nc4ccccc4-5)cc3)CC2)cc1` [Example 168, 1-(1-(4-(9H-benzo[f]pyrido[2,3-b][1,2,4]triazolo[4,3-d][1,4]diazepin-3-yl)benzyl)piperidin-4-yl)-3-(p-tolyl)urea] are 15 µM, 22 µM and 0.44 µM. As for `O=C(c1ccccc1)N1CCN(Cc2ccc(-c3nnc4n3-c3cccnc3Nc3ccccc3-4)cc2)CC1` [Example 144, (4-(4-(9H-benzo[f]pyrido[2,3-b][1,2,4]triazolo[4,3-d][1,4]diazepin-3-yl)benzyl)piperazin-1-yl)(phenyl)methanone], the IC50 at AKT1 is 1.9 µM. Same read-out and setting: next, `Cc1cc(COCc2ccc(-c3nnc4n3-c3cccnc3Nc3ccccc3-4)cc2)no1` [Example 185, 3-(((4-(9H-benzo[f]pyrido[2,3-b][1,2,4]triazolo[4,3-d][1,4]diazepin-3-yl)benzyl)oxy)methyl)-5-methylisoxazole]: 2.1 µM; `N#Cc1cccc(C(=O)Nc2ccc(-c3nnc4n3-c3cccnc3Nc3ccccc3-4)cc2)c1` [Example 60, N-(4-(9H-benzo[f]pyrido[2,3-b][1,2,4]triazolo[4,3-d][1,4]diazepin-3-yl)phenyl)-3-cyanobenzamide]: 0.076 µM; `c1ccc2c(c1)Nc1ncccc1-n1c(-c3ccc(CNC4CCC4)cc3)nnc1-2` [Example 69, N-(4-(9H-benzo[f]pyrido[2,3-b][1,2,4]triazolo[4,3-d][1,4]diazepin-3-yl)benzyl)cyclobutanamine]: 4.5 µM. Same read-out and setting: next, `Fc1ccc(-c2nnc3n2-c2cccnc2Nc2ccccc2-3)cc1` [hydrochloride]: 23 µM; `N#Cc1ccc(C(=O)NC2CCN(Cc3ccc(-c4nnc5n4-c4cccnc4Nc4ccccc4-5)cc3)CC2)cc1` [Example 130, N-(1-(4-(9H-benzo[f]pyrido[2,3-b][1,2,4]triazolo[4,3-d][1,4]diazepin-3-yl)benzyl)piperidin-4-yl)-4-cyanobenzamide]: 1.7 µM. The same measure, in the same setting: next, `CN(C)c1ccc(C(=O)Nc2ccc(-c3nnc4n3-c3cccnc3Nc3ccccc3-4)cc2)cc1` [Example 45, N-(4-(9H-benzo[f]pyrido[2,3-b][1,2,4]triazolo[4,3-d][1,4]diazepin-3-yl)phenyl)-4-(dimethylamino)benzamide]: 1.9 µM. For `N#Cc1cccc(C(=O)N2CCN(Cc3ccc(-c4nnc5n4-c4cccnc4Nc4ccccc4-5)cc3)CC2)c1` [Example 159, 3-(4-(4-(9H-benzo[f]pyrido[2,3-b][1,2,4]triazolo[4,3-d][1,4]diazepin-3-yl)benzyl)piperazine-1-carbonyl)benzonitrile], at AKT1, the IC50 was 2 µM. The same measure, in the same setting: next, `CC(C)(C)OC(=O)NC1CCN(Cc2ccc(-c3nnc4n3-c3cccnc3Nc3ccccc3-4)cc2)CC1` [Example 201, tert-butyl (1-(4-(9H-benzo[f]pyrido[2,3-b][1,2,4]triazolo[4,3-d][1,4]diazepin-3-yl)benzyl)piperidin-4-yl)carbamate]: 1.9 µM; `O=C(NCc1ccc(-c2nnc3n2-c2cccnc2Nc2ccccc2-3)cc1)c1ccco1` [Example 97, N-(4-(9H-benzo[f]pyrido[2,3-b][1,2,4]triazolo[4,3-d][1,4]diazepin-3-yl)benzyl)furan-2-carboxamide]: 1.1 µM. On the same count and under the same terms, next, `c1ccc(CN2CCN(Cc3ccc(-c4nnc5n4-c4cccnc4Nc4ccccc4-5)cc3)CC2)cc1` [Example 82, 3-(4-((4-benzylpiperazin-1-yl)methyl)phenyl)-9H-benzo[f]pyrido[2,3-b][1,2,4]triazolo[4,3-d][1,4]diazepine]: 5.3 µM; `O=c1[nH]c(-c2ccccc2)cn1C1CCN(Cc2ccc(-c3nnc4n3-c3cccnc3Nc3ccccc3-4)cc2)CC1` [Example 191, 1-(1-(4-(9H-benzo[f]pyrido[2,3-b][1,2,4]triazolo[4,3-d][1,4]diazepin-3-yl)benzyl)piperidin-4-yl)-4-phenyl-1H-imidazol-2(3H)-one]: 0.048 µM. On the same count and under the same terms, next, `COc1ccc(S(=O)(=O)NCCc2ccc(-c3nnc4n3-c3cccnc3Nc3ccccc3-4)cc2)cc1` [Example 109, N-(4-(9H-benzo[f]pyrido[2,3-b][1,2,4]triazolo[4,3-d][1,4]diazepin-3-yl)phenethyl)-4-methoxybenzenesulfonamide]: 9.1 µM. `NC1(c2ccc(-c3nnc4n3-c3cc(-c5ccccc5)cnc3Nc3ccccc3-4)cc2)CCC1` [Example 230, 1-(4-(6-phenyl-9H-benzo[f]pyrido[2,3-b][1,2,4]triazolo[4,3-d][1,4]diazepin-3-yl)phenyl)cyclobutanamine]: the 50% inhibitory concentration (IC50) at AKT1 was 2.6 µM.

With `Cc1ccc2c(c1)Nc1ncccc1-n1c(-c3ccc(C4(N)CCC4)cc3)nnc1-2` [Example 223, 1-(4-(11-methyl-9H-benzo[f]pyrido[2,3-b][1,2,4]triazolo[4,3-d][1,4]diazepin-3-yl)phenyl)cyclobutanamine], the half-maximal inhibitory concentration (IC50) at AKT1 was 0.49 µM. Take `c1ccc(OC2CCCN(Cc3ccc(-c4nnc5n4-c4cccnc4Nc4ccccc4-5)cc3)C2)cc1` (centres unmarked) [Example 189, 3-(4-((3-phenoxypiperidin-1-yl)methyl)phenyl)-9H-benzo[f]pyrido[2,3-b][1,2,4]triazolo[4,3-d][1,4]diazepine]: the IC50 at AKT1 was determined as 0.92 µM.

Take `Clc1ccc(-c2nnc3n2-c2cccnc2Nc2ccccc2-3)cc1` [Example 9, hydrochloride]: the 50% inhibitory concentration (IC50) on AKT1 was found to be 5.1 µM.
